Data as given in article PMC12262901, “Natural product-mediated reaction hijacking mechanism validates Plasmodium aspartyl-tRNA synthetase as an antimalarial drug target” (PLOS Pathogens, 2025).
One block for each molecule: values may come before it.

Legend:
[1] = biological target: native length PfAspRS (49-626), Plasmodium falciparum cytoplasmic aspartyl tRNA synthetase (P. falciparum); experiment: SEC; gel filtration after removal of the His-tags; 25 mM or 50 mM Tris-HCl pH 8.0, 150 mM NaCl, 0.5 or 1 mM TCEP
[2] = biological target: native length PfAspRS (49-626), Plasmodium falciparum cytoplasmic aspartyl tRNA synthetase (P. falciparum); experiment: AUC; sedimentation velocity, c(s) model; PfAspRS at 1, 0.6 and 0.2 mg/mL in 50 mM Tris pH 8.0, 150 mM NaCl, 1 mM TCEP; 200,000 g, 20°C, absorbance at 290 nm
[3] = biological target: T1, native length PvAspRS (51-631) (Plasmodium vivax, UniProt A5K9Y2); experiment: differential scanning fluorimetry after […] h incubation with substrates; assay type: binding; conditions: read-out: dTm
T1 construct: gene PVX_081610; residues 51-631, codon-optimised, expressed in E. coli BL21(DE3), N-terminal His-tag removed with TEV protease, homodimer
T1 sequence (A5K9Y2 51-631): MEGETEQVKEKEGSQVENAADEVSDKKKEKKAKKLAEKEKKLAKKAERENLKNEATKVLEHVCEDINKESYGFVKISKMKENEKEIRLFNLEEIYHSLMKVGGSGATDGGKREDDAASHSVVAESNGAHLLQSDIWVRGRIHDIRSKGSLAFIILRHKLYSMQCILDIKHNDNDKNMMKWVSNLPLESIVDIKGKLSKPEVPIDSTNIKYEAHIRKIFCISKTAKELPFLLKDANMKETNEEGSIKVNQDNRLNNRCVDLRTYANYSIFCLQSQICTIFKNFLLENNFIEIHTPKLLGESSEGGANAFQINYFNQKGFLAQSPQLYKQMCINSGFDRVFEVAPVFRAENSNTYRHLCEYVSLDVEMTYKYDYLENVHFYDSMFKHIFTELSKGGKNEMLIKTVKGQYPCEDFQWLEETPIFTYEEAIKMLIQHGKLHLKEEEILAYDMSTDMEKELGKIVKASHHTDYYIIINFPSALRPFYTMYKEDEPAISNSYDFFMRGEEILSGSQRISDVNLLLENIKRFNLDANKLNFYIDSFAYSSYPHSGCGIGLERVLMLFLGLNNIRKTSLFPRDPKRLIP

[4] = biological target: T2, native length PfAspRS (49-626) (Plasmodium falciparum, UniProt Q8I2B1); experiment: as above; assay type: binding; conditions: AMS (10 or 50 µM) with 10 µM ATP, 20 µM L-Asp, 80 µM E. coli tRNA, 5 mM MgCl2, pH 8, 37 °C; reaction hijacking, covalent Asp-AMS adduct made by the enzyme; value is the Tm, not the shift
T2 construct: gene PF3D7_0102900; residues 49-626, cytoplasmic, codon-optimised, expressed in E. coli BL21(DE3), N-terminal His-tag removed with TEV protease, homodimer; observed mass 67831 Da
T2 sequence (Q8I2B1 49-626): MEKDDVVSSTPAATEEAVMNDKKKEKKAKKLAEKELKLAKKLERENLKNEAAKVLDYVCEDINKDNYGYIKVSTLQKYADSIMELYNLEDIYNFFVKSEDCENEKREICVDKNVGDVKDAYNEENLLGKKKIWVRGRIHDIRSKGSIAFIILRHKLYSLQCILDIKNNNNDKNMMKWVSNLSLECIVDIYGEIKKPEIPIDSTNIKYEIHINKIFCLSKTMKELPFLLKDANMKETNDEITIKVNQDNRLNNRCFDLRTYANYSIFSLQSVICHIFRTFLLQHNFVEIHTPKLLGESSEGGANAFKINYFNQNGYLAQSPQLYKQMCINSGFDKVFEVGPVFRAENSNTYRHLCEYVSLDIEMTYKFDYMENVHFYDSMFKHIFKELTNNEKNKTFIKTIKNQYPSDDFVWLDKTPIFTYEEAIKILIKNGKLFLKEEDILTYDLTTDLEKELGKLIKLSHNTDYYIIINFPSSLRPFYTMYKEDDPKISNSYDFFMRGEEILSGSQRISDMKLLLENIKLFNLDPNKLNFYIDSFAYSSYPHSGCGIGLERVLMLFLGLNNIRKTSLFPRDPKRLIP

[5] = biological target: T1, native length PvAspRS (51-631); experiment: as above; assay type: binding; conditions: AMS (10 or 50 µM) with 10 µM ATP, 20 µM L-Asp, 80 µM E. coli tRNA, 5 mM MgCl2, pH 8, 37 °C; reaction hijacking, covalent Asp-AMS adduct made by the enzyme; value is the Tm, not the shift
[6] = biological target: T2, native length PfAspRS (49-626); experiment: Kinase-Glo ATP consumption assay; assay type: biochemical; conditions: 10 µM ATP, 200 µM L-Asp, 80 µM E. coli tRNA, 5 mM MgCl2, pyrophosphatase, pH 8, 37 °C
[7] = biological target: T3, truncated PvAspRS (96-631) (Plasmodium vivax, UniProt A5K9Y2); experiment: Kinase-Glo ATP consumption assay; assay type: biochemical; conditions: 10 µM ATP, 200 µM L-Asp, 80 µM E. coli tRNA, 5 mM MgCl2, pyrophosphatase, pH 8, 37 °C
T3 construct: gene PVX_081610; residues 96-631, lacks N-terminal extension, pETM-41 vector, expressed in E. coli BL21(DE3), tag removed with TEV protease, homodimer
T3 sequence (A5K9Y2 96-631): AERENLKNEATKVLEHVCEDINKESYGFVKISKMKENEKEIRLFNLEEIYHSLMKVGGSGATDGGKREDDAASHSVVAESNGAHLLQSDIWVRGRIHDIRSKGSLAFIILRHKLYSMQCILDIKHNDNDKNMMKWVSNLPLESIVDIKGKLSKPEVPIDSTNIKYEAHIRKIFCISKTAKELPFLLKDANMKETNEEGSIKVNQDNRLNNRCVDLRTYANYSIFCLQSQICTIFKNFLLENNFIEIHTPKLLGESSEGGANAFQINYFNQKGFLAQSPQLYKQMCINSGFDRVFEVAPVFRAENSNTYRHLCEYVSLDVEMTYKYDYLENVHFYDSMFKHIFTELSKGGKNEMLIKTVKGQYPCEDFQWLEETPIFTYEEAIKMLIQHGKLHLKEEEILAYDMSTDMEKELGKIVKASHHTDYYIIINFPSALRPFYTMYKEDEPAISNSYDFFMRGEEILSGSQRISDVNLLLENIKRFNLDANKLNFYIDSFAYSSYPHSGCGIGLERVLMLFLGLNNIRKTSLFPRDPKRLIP

HsAspRS (1-501) [8] = biological target: T4, HsAspRS (1-501) (Homo sapiens, UniProt P14868); experiment: Kinase-Glo ATP consumption assay; assay type: biochemical; conditions: 10 µM ATP, 200 µM L-Asp, 160 µM E. coli tRNA, 5 mM MgCl2, pyrophosphatase, pH 8, 37 °C
T4 construct: gene DARS1; full-length 1-501, codon-optimised, expressed in E. coli BL21(DE3), His-tag removed with TEV protease, homodimer
T4 sequence (P14868 1-501): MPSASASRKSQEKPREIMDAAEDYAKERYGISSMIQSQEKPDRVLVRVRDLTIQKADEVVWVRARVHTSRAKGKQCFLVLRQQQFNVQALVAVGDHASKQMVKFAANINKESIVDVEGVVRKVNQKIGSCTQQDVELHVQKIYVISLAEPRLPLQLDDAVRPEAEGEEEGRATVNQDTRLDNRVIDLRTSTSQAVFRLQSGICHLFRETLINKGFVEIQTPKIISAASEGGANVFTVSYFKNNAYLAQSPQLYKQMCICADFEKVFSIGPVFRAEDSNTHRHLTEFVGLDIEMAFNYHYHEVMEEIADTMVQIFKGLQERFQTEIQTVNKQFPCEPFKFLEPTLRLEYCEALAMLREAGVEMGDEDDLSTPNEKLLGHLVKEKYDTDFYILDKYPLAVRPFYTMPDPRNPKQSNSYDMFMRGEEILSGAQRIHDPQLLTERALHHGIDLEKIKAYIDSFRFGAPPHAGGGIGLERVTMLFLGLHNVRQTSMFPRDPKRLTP

[9] = biological target: T1, native length PvAspRS (51-631); experiment: Kinase-Glo ATP consumption assay; assay type: biochemical; conditions: 10 µM ATP, 200 µM L-Asp, 80 µM E. coli tRNA, 5 mM MgCl2, pyrophosphatase, pH 8, 37 °C
[10] = biological target: native length PvAspRS (51-631), Plasmodium vivax aspartyl tRNA synthetase (P. vivax); experiment: SEC; gel filtration after removal of the His-tags; 25 mM or 50 mM Tris-HCl pH 8.0, 150 mM NaCl, 0.5 or 1 mM TCEP
[11] = biological target: T3, truncated PvAspRS (96-631); experiment: X-ray crystal structure, […] Å; assay type: binding; conditions: active site, both chains; Mg2+ in chain B
[12] = biological target: T3, truncated PvAspRS (96-631); experiment: X-ray crystal structure, […] Å; assay type: binding; conditions: active site, both chains; crystallised with ATP and L-Asp
[13] = biological target: T3, truncated PvAspRS (96-631); experiment: X-ray crystal structure, […] Å; assay type: binding; conditions: active site of catalytic domain, both chains; possible radiation damage at the 2-Cl
HsAspRS (1-501) [14] = biological target: T4, HsAspRS (1-501); experiment: differential scanning fluorimetry; assay type: binding; conditions: 2 or 5 µM synthetic Asp-DACM, pH 8, 37 °C, 3 h
[15] = biological target: T2, native length PfAspRS (49-626); experiment: differential scanning fluorimetry; assay type: binding; conditions: 2 or 5 µM synthetic Asp-DACM, pH 8, 37 °C, 3 h
[16] = biological target: T1, native length PvAspRS (51-631); experiment: differential scanning fluorimetry; assay type: binding; conditions: 2 or 5 µM synthetic Asp-DACM, pH 8, 37 °C, 3 h
[17] = biological target: T5, full-length HsAspRS (1-501), human aspartyl tRNA synthetase (human), P14868; experiment: SEC; gel filtration after removal of the His-tags; 25 mM or 50 mM Tris-HCl pH 8.0, 150 mM NaCl, 0.5 or 1 mM TCEP; conditions: remark: other sources report otherwise
T5 chain: T4 sequence (P14868 1-501)

stoichiometry N [1]: 2
stoichiometry N [2]: 2
Molecule: native length PfAspRS (49-626), Plasmodium falciparum cytoplasmic aspartyl tRNA synthetase (enzyme)

Molecule: Nc1nc(Cl)nc2c1ncn2[C@@H]1O[C@H](COS(N)(=O)=O)[C@@H](O)[C@H]1O [DACM, 5′-O-sulfamoyl-2-chloroadenosine]
ΔTm at 10 µM [3]: 19 °C

Molecule: Nc1ncnc2c1ncn2[C@@H]1O[C@H](COS(N)(=O)=O)[C@@H](O)[C@H]1O [AMS]
Tm [4]: 57.0 °C
Tm [5]: 59.5 °C

Molecule: Nc1ncnc2c1ncn2[C@@H]1O[C@H](COP(=O)(O)OP(=O)(O)OP(=O)(O)O)[C@@H](O)[C@H]1O [ATP]
Kinase-Glo ATP consumption assay [6]: Addition of EctRNA substantively increased the level of ATP consumption
Kinase-Glo ATP consumption assay [7]: marked increase in ATP consumption in the presence of EctRNA
Kinase-Glo ATP consumption assay (HsAspRS (1-501) [8]): Addition of EctRNA substantively increased the level of ATP consumption
Kinase-Glo ATP consumption assay [9]: Addition of EctRNA substantively increased the level of ATP consumption

stoichiometry N [10]: 2
Molecule: native length PvAspRS (51-631), Plasmodium vivax aspartyl tRNA synthetase (enzyme)

Molecule: Nc1ncnc2c1ncn2[C@@H]1O[C@H](COS(=O)(=O)NC(=O)[C@@H](N)CC(=O)O)[C@@H](O)[C@H]1O [Asp-AMS, 5′-O-(N-L-aspartate)-sulfamoyl-adenosine]
X-ray crystal structure, 1.8 Å [11]: We also solved the structure of PvAspRS with bound synthetic Asp-AMS

Molecule: Nc1ncnc2c1ncn2[C@@H]1O[C@H](COP(=O)(O)OC(=O)[C@@H](N)CC(=O)O)[C@@H](O)[C@H]1O [Asp-AMP]
X-ray crystal structure, 2.1 Å [12]: We also solved the structure of PvAspRS with the natural intermediate, Asp-AMP

Molecule: Nc1nc(Cl)nc2c1ncn2[C@@H]1O[C@H](COS(=O)(=O)NC(=O)[C@@H](N)CC(=O)O)[C@@H](O)[C@H]1O [Asp-DACM, 2-chloro-5′-O-[N-(L-aspartyl)-sulfamoyl] adenosine]
X-ray crystal structure, 2.4 Å [13]: We solved the structure of PvAspRS with bound synthetic Asp-DACM
dTm (HsAspRS (1-501) [14]): synthetic Asp-DACM increased the Tm values of PfAspRS, PvAspRS and HsAspRS
dTm [15]: synthetic Asp-DACM increased the Tm values of PfAspRS, PvAspRS and HsAspRS
dTm [16]: synthetic Asp-DACM increased the Tm values of PfAspRS, PvAspRS and HsAspRS

stoichiometry N [17]: 2
B1: full-length HsAspRS (1-501), human aspartyl tRNA synthetase, P14868-1 1-501 (enzyme)
chain: T4 sequence (P14868 1-501)
